Reference: EP4707280A1, “1,4-CINEOLE DERIVATIVE AND INTERMEDIATE THEREOF, HERBICIDE CONTAINING SAID DERIVATIVE AS ACTIVE INGREDIENT, METHOD FOR USING HERBICIDE, AND METHOD FOR PREPARING AGROCHEMICAL COMPOSITION” (HOKKO CHEMICAL INDUSTRY CO., LTD., priority 2023, dated 2024)

Experiments:
Format in all cases: in vivo
Echinochloa crus-galli [1] = assay: Test Example 3: herbicidal effect test by soil application in upland field; details: Echinochloa crus-galli, 120 g per 10 ares, sprayed one day after sowing, 14 days after application, read-out: weed inhibition rate
Outline: (§1)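 Weed inhibition (%) was assessed 14 days after treatment, in duplicate per concentration group. Seeds had been mixed into the upper 1 cm of upland alluvial loam, and the soil surface was sprayed one day later with the diluted emulsifiable concentrate at 120 g active ingredient per 10 ares.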

Digitaria ciliaris [2] = assay: as above; details: Digitaria ciliaris, 120 g per 10 ares, sprayed one day after sowing, 14 days after application, read-out: weed inhibition rate
Outline: as §1

Echinochloa crus-galli [3] = assay: Test Example 8: herbicidal effect test by stem and leaf treatment in upland field (low dose); details: Echinochloa crus-galli; 7.5 g per 10 ares; sprayed seven days after sowing, upland soil; 14 days after application; read-out: weed inhibition rate
Monochoria vaginalis [4] = assay: Test Example 1: herbicidal effect test by soil application in paddy rice; details: Pontederia vaginalis, soil, 336 h; 120 g active ingredient per 10 ares; applied immediately after sowing, flooded pots; 14 days after application; read-out: weed inhibition rate
Outline: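 Inhibition rate (%) read 14 days after treatment, duplicate pots. Water-diluted emulsifiable concentrate was applied by dropper at 120 g active ingredient/10 ares right after sowing. Seeds (30 per species, 0–1 cm deep) went into puddled paddy soil kept flooded at about 3 cm in a greenhouse.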

[5] = system: Echinochloa crus-galli var. formosensis; assay: Test Example 5: herbicidal effect test by soil application in paddy rice (low dose); details: Echinochloa crus-galli, soil, 336 h; 7.5 g per 10 ares; applied immediately after sowing, flooded pots; 14 days after application; read-out: weed inhibition rate
Outline: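 Flooded-paddy soil application at low dose (7.5 g a.i. per 10 ares), given by dropper as diluted emulsifiable concentrate directly after sowing weeds 0–1 cm deep. Effect evaluated after 14 days in duplicate.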

Monochoria vaginalis [6] = assay: as above; details: Pontederia vaginalis, 336 h, 7.5 g per 10 ares, applied immediately after sowing, flooded pots, 14 days after application, read-out: weed inhibition rate
Procedure: (§2) The present test was conducted in duplicate for each chemical concentration group, and the weed inhibition rate (%) was determined 14 days after chemical application using the following formula (Math. 1). [formula]
(§3) Wagner pots with an area of […] were filled with paddy soil, followed by addition of water and incorporation of chemical fertilizer (N:P:K = 16:16:16), after which puddling was performed. After that, seeds of Echinochloa crus-galli var. formosensis, broad-leaved weeds (Monochoria vaginalis), and Scirpus juncoides were sown at a depth of 0 cm to 1 cm, 30 seeds each. Immediately after sowing, the pots were flooded and a water depth of approximately 3 cm was maintained. Subsequent management was conducted in a glass greenhouse. Immediately thereafter, an emulsifiable concentrate prepared according to Formulation Example 5 using the compound shown below was diluted with water, and a specified amount of the diluted solution was applied by dropper. The amount of the active ingredient to be applied was equivalent to 7.5 g per 10 ares.
(§4) The present test was conducted in duplicate for each chemical concentration group, and the herbicidal effect was evaluated 14 days after chemical application using the same criteria as in Test Example 1.

Echinochloa crus-galli [7] = assay: Test Example 4: herbicidal effect test by stem and leaf treatment in upland field; details: Echinochloa crus-galli; 120 g per 10 ares; sprayed seven days after sowing, upland soil; 14 days after application; read-out: weed inhibition rate
Digitaria ciliaris [8] = assay: Test Example 8: herbicidal effect test by stem and leaf treatment in upland field (low dose); details: Digitaria ciliaris; 7.5 g per 10 ares; sprayed seven days after sowing, upland soil; 14 days after application; read-out: weed inhibition rate
Scirpus juncoides = assay: Test Example 5: herbicidal effect test by soil application in paddy rice (low dose); details: Schoenoplectiella juncoides, 336 h, 7.5 g per 10 ares, applied immediately after sowing, flooded pots, 14 days after application, read-out: weed inhibition rate
Procedure: as §2, §3, §4

Digitaria ciliaris [9] = assay: Test Example 4: herbicidal effect test by stem and leaf treatment in upland field; details: Digitaria ciliaris; 120 g per 10 ares; sprayed seven days after sowing, upland soil; 14 days after application; read-out: weed inhibition rate

CC(C)[C@]12C[C@@H](OCc3ccccc3Br)[C@](C)(C[C@@H]1Br)O2 [1-694, (1S,2R,4R,5S)-5-bromo-2-[(2-bromophenyl)methoxy]-1-methyl-4-isopropyl-7-oxabicyclo[2.2.1]heptane]
≥ 80%: inhibition at 1200 g/ha (Echinochloa crus-galli [1]) | inhibition at 1200 g/ha (Digitaria ciliaris [2]) | inhibition at 75 g/ha (Echinochloa crus-galli [3]) | pest or weed control at 1200 g/ha (Monochoria vaginalis [4]) | inhibition at 75 g/ha [5] | inhibition at 75 g/ha (Monochoria vaginalis [6]) | inhibition at 1200 g/ha (Echinochloa crus-galli [7])

CO[C@H]1C[C@]2(C)O[C@@]1(C(C)C)C[C@H]2OCc1ccccc1C [1-151, (1 S,2R,4R,5S)-4-isopropyl-5-methoxy-l-methyl-2-((2-methylbenzyl)oxy)-7-oxabicyclo[2.2.1]heptane]
≥ 80%: inhibition at 1200 g/ha (Echinochloa crus-galli [1]) | inhibition at 1200 g/ha (Digitaria ciliaris [2]) | inhibition at 75 g/ha (Echinochloa crus-galli [3]) | inhibition at 75 g/ha (Digitaria ciliaris [8]) | inhibition at 75 g/ha [5] | inhibition at 75 g/ha (Scirpus juncoides) | inhibition at 1200 g/ha (Echinochloa crus-galli [7]) | inhibition at 1200 g/ha (Digitaria ciliaris [9])

CC(C)[C@]12C[C@@H](OCc3c(F)cccc3F)[C@](C)(C[C@@H]1O)O2 [1-41, (1R,2S,4S,5R)-5-((2,6-difluorobenzyl)oxy)-1-isopropyl-4-methyl-7-oxabicyclo[2,2,1]heptan-2-ol]
≥ 80%: inhibition at 1200 g/ha (Echinochloa crus-galli [1]) | inhibition at 1200 g/ha (Digitaria ciliaris [2]) | inhibition at 75 g/ha (Echinochloa crus-galli [3]) | inhibition at 75 g/ha (Digitaria ciliaris [8]) | pest or weed control at 1200 g/ha (Monochoria vaginalis [4]) | inhibition at 75 g/ha [5] | inhibition at 75 g/ha (Scirpus juncoides) | inhibition at 1200 g/ha (Echinochloa crus-galli [7]) | inhibition at 1200 g/ha (Digitaria ciliaris [9])

Cc1ccc(CO[C@@H]2C[C@]3(C(C)C)O[C@@]2(C)C[C@@H]3Br)cc1 [1-681, (1S,2R,4R,5S)-5-bromo-1-methyl-2-[(4-methylphenyl)methoxy]-4-isopropyl-7-oxabicyclo[2.2.1]heptane]
≥ 80%: inhibition at 1200 g/ha (Echinochloa crus-galli [1]) | inhibition at 1200 g/ha (Digitaria ciliaris [2]) | inhibition at 75 g/ha (Echinochloa crus-galli [3]) | inhibition at 75 g/ha (Digitaria ciliaris [8]) | pest or weed control at 1200 g/ha (Monochoria vaginalis [4]) | inhibition at 75 g/ha [5] | inhibition at 1200 g/ha (Echinochloa crus-galli [7]) | inhibition at 1200 g/ha (Digitaria ciliaris [9])

CC(C)[C@]12C[C@@H](OCc3ccccc3F)[C@](C)(C[C@@H]1OS(=O)(=O)C(F)(F)F)O2 [1-525, (1R,2S,4S,5R)-5-((2-fluorobenzyl)oxy)-1-isopropyl-4-methyl-7-oxabicyclo[2.2.1]heptan-2-yl trifluoromethanesulfonate]
≥ 80%: inhibition at 1200 g/ha (Echinochloa crus-galli [1]) | inhibition at 1200 g/ha (Digitaria ciliaris [2]) | inhibition at 75 g/ha (Echinochloa crus-galli [3]) | inhibition at 75 g/ha (Digitaria ciliaris [8]) | pest or weed control at 1200 g/ha (Monochoria vaginalis [4]) | inhibition at 75 g/ha [5] | inhibition at 1200 g/ha (Echinochloa crus-galli [7]) | inhibition at 1200 g/ha (Digitaria ciliaris [9])

CC(C)[C@]12C[C@@H](OCc3c(F)cccc3F)[C@](C)(C[C@@H]1F)O2 [1-7, (1S,2R,4R,5S)-2-((2,6-difluorobenzyl)oxy)-5-fluoro-4-isopropyl-1-methyl-7-oxabicyclo[2.2.1]heptane]
≥ 80%: inhibition at 1200 g/ha (Echinochloa crus-galli [1]) | inhibition at 1200 g/ha (Digitaria ciliaris [2]) | inhibition at 75 g/ha (Echinochloa crus-galli [3]) | inhibition at 75 g/ha (Digitaria ciliaris [8]) | pest or weed control at 1200 g/ha (Monochoria vaginalis [4]) | inhibition at 75 g/ha [5] | inhibition at 75 g/ha (Scirpus juncoides) | inhibition at 1200 g/ha (Echinochloa crus-galli [7]) | inhibition at 1200 g/ha (Digitaria ciliaris [9])

CC(C)[C@]12C[C@@H](OCc3ccccc3F)[C@](C)(C[C@@H]1Br)O2 [1-19, (1S,2R,4R,5S)-5-bromo-2-[(2-fluorophenyl)methoxy]-1-methyl-4-isopropyl-7-oxabicyclo[2.2.1]heptane]
≥ 80%: inhibition at 1200 g/ha (Echinochloa crus-galli [1]) | inhibition at 1200 g/ha (Digitaria ciliaris [2]) | inhibition at 75 g/ha (Echinochloa crus-galli [3]) | inhibition at 75 g/ha (Digitaria ciliaris [8]) | pest or weed control at 1200 g/ha (Monochoria vaginalis [4]) | inhibition at 75 g/ha [5] | inhibition at 75 g/ha (Scirpus juncoides) | inhibition at 1200 g/ha (Echinochloa crus-galli [7]) | inhibition at 1200 g/ha (Digitaria ciliaris [9])

CC(C)[C@]12C[C@@H](OCc3ccccc3F)[C@](C)(C[C@@H]1OCc1ccccc1F)O2 [1-603, (1S,2R,4R,5S)-2,5-bis[(2-fluorophenyl)methoxy]-1-methyl-4-isopropyl-7-oxabicyclo[2.2.1]heptane]
≥ 80%: inhibition at 1200 g/ha (Echinochloa crus-galli [1]) | inhibition at 1200 g/ha (Digitaria ciliaris [2]) | pest or weed control at 1200 g/ha (Monochoria vaginalis [4]) | inhibition at 75 g/ha [5] | inhibition at 75 g/ha (Monochoria vaginalis [6]) | inhibition at 1200 g/ha (Echinochloa crus-galli [7]) | inhibition at 1200 g/ha (Digitaria ciliaris [9])
